Reference: ChEMBL document CHEMBL1201862, “PubChem BioAssay data set” (2004)
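Following 48 hours of exposure in 96-well plates, responses at five concentrations were used to interpolate endpoints linearly. Abbreviation: GI50, concentration required for 50% inhibition of growth.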 Activity calls are given as the source filed them. Rule as the data show it: active = GI50 up to about 1.1 µM and inactive = higher.

Assays:
Test in all cases: NCI anticancer screen, dose series, 48 h
786-0 = tested on: 786-0
CAKI-1 = tested on: CAKI-1
CCRF-CEM = tested on: CCRF-CEM
COLO 205 = tested on: COLO 205
DU-145 = tested on: DU-145
EKVX = tested on: EKVX
HCC 2998 = tested on: HCC 2998
HL-60 = tested on: HL-60
HOP-92 = tested on: HOP-92
Hs-578T = tested on: Hs-578T
KM12 = tested on: KM12
MDA-MB-231 = tested on: MDA-MB-231
OVCAR-4 = tested on: OVCAR-4
OVCAR-5 = tested on: OVCAR-5
SF-268 = tested on: SF-268
SK-MEL-2 = tested on: SK-MEL-2
SNB-75 = tested on: SNB-75
T47D = tested on: T47D
U-251 = tested on: U-251
Malme-3M = tested on: Malme-3M

With `COc1ccc2c(c1)CCN=C2c1ccccc1CCCCl` the GI50 (786-0) was 38.4 µM (inactive), the GI50 (CAKI-1) was 24.4 µM (inactive) and the GI50 (CCRF-CEM) was 41.4 µM (inactive). For the same compound, the GI50 (COLO 205) was 11 µM (inactive), the GI50 (DU-145) was 36.5 µM (inactive) and the GI50 (EKVX) was 17.7 µM (inactive). For the same compound, the GI50 (HCC 2998) was 6.25 µM (inactive), the GI50 (HL-60) was 11.4 µM (inactive) and the GI50 (HOP-92) was 26.7 µM (inactive). For the same compound, the GI50 (Hs-578T) was 16.5 µM (inactive), the GI50 (KM12) was 14.9 µM (inactive) and the GI50 (MDA-MB-231) was 19 µM (inactive). For the same compound, the GI50 (OVCAR-4) was 13.7 µM (inactive), the GI50 (OVCAR-5) was 46.8 µM (inactive) and the GI50 (SF-268) was 22.2 µM (inactive). For the same compound, the GI50 (SK-MEL-2) was 28 µM (inactive), the GI50 (SNB-75) was 17.3 µM (inactive) and the GI50 (T47D) was 10.8 µM (inactive). The GI50 (U-251) was 71.6 µM (inactive).
With `COc1ccc2c(=O)c3c([nH]c2c1)OCC3=O` the GI50 (786-0) was > 100 µM (inactive), the GI50 (CAKI-1) was > 100 µM (inactive) and the GI50 (CCRF-CEM) was > 100 µM (inactive). For the same compound, the GI50 (COLO 205) was > 100 µM (inactive), the GI50 (DU-145) was > 100 µM (inactive) and the GI50 (EKVX) was > 100 µM (inactive). The GI50 (HCC 2998) was > 100 µM (inactive), the GI50 (HL-60) was > 100 µM (inactive) and the GI50 (HOP-92) was > 100 µM (inactive). The GI50 (Hs-578T) was > 100 µM (inactive), the GI50 (KM12) was > 100 µM (inactive) and the GI50 (MDA-MB-231) was > 100 µM (inactive). For the same compound, the GI50 (OVCAR-4) was > 100 µM (inactive), the GI50 (SF-268) was > 100 µM (inactive) and the GI50 (SK-MEL-2) was > 100 µM (inactive). For the same compound, the GI50 (SNB-75) was > 100 µM (inactive), the GI50 (T47D) was > 100 µM (inactive) and the GI50 (U-251) was > 100 µM (inactive).
`c1ccc([P+](CCNCCNCC[P+](c2ccccc2)(c2ccccc2)c2ccccc2)(c2ccccc2)c2ccccc2)cc1` was tested, and the GI50 (786-0) was > 100 µM (inactive), the GI50 (COLO 205) was > 100 µM (inactive) and the GI50 (DU-145) was > 100 µM (inactive). For the same compound, the GI50 (EKVX) was > 100 µM (inactive), the GI50 (HCC 2998) was > 100 µM (inactive) and the GI50 (Hs-578T) was > 100 µM (inactive). The GI50 (KM12) was > 100 µM (inactive), the GI50 (MDA-MB-231) was > 100 µM (inactive) and the GI50 (OVCAR-4) was > 100 µM (inactive). For the same compound, the GI50 (OVCAR-5) was > 100 µM (inactive), the GI50 (SF-268) was > 100 µM (inactive) and the GI50 (SK-MEL-2) was > 100 µM (inactive). For the same compound, the GI50 (SNB-75) was > 100 µM (inactive), the GI50 (T47D) was > 100 µM (inactive) and the GI50 (U-251) was > 100 µM (inactive).
With `CCC/C(=N\NC(=S)N1CCN(c2ccccn2)CC1)c1ccccn1` the GI50 (786-0) was 0.0251 µM (active), the GI50 (CAKI-1) was 0.179 µM (active) and the GI50 (COLO 205) was 0.00508 µM (active). The GI50 (DU-145) was 1.13 µM (inactive), the GI50 (EKVX) was 0.00729 µM (active) and the GI50 (HCC 2998) was 0.0594 µM (active). The GI50 (HL-60) was < 0.001 µM (active), the GI50 (HOP-92) was 0.233 µM (active) and the GI50 (Hs-578T) was 0.213 µM (active). For the same compound, the GI50 (KM12) was 0.0146 µM (active), the GI50 (MDA-MB-231) was 0.0311 µM (active) and the GI50 (Malme-3M) was 0.0205 µM (active). The GI50 (OVCAR-4) was 0.191 µM (active), the GI50 (OVCAR-5) was 0.61 µM (active) and the GI50 (SF-268) was 0.236 µM (active). The GI50 (SK-MEL-2) was 0.115 µM (active), the GI50 (T47D) was 0.00248 µM (active) and the GI50 (U-251) was 0.00312 µM (active).
In the case of `COc1cccc(N2C(=O)/C(=C\c3ccccc3)SC2c2cc(OC)c(OC)c(OC)c2)c1` (centres undefined), the GI50 (786-0) is reported as 40.9 µM (inactive), the GI50 (CAKI-1) is reported as 70 µM (inactive) and the GI50 (CCRF-CEM) is reported as 37.8 µM (inactive). For the same compound, the GI50 (COLO 205) was 39.7 µM (inactive), the GI50 (DU-145) was 41.2 µM (inactive) and the GI50 (EKVX) was 44.2 µM (inactive). The GI50 (HCC 2998) was 32.3 µM (inactive), the GI50 (HL-60) was 36 µM (inactive) and the GI50 (HOP-92) was 27.7 µM (inactive). The GI50 (Hs-578T) was 30.4 µM (inactive), the GI50 (KM12) was 36.5 µM (inactive) and the GI50 (MDA-MB-231) was 98.2 µM (inactive). For the same compound, the GI50 (OVCAR-4) was 46.5 µM (inactive), the GI50 (OVCAR-5) was > 100 µM (inactive) and the GI50 (SF-268) was 41.4 µM (inactive). For the same compound, the GI50 (SK-MEL-2) was 62.1 µM (inactive), the GI50 (SNB-75) was 18 µM (inactive) and the GI50 (T47D) was 17.4 µM (inactive). The GI50 (U-251) was 33.3 µM (inactive).
In the case of `Nn1c(SCC(=O)O)nc2ccccc2c1=O`, the GI50 (786-0) is reported as > 100 µM (inactive), the GI50 (CAKI-1) is reported as > 100 µM (inactive) and the GI50 (CCRF-CEM) is reported as > 100 µM (inactive). For the same compound, the GI50 (COLO 205) was > 100 µM (inactive), the GI50 (DU-145) was > 100 µM (inactive) and the GI50 (EKVX) was > 100 µM (inactive). The GI50 (HCC 2998) was > 100 µM (inactive), the GI50 (HOP-92) was > 100 µM (inactive) and the GI50 (Hs-578T) was > 100 µM (inactive). For the same compound, the GI50 (KM12) was > 100 µM (inactive), the GI50 (MDA-MB-231) was > 100 µM (inactive) and the GI50 (Malme-3M) was > 100 µM (inactive). For the same compound, the GI50 (OVCAR-4) was > 100 µM (inactive), the GI50 (OVCAR-5) was > 100 µM (inactive) and the GI50 (SF-268) was > 100 µM (inactive). The GI50 (SK-MEL-2) was > 100 µM (inactive), the GI50 (SNB-75) was > 100 µM (inactive) and the GI50 (T47D) was > 100 µM (inactive). For the same compound, the GI50 (U-251) was > 100 µM (inactive).
In the case of `CC[C@]12C=CCN3CCC4(c5cc(/N=N/c6ccc([N+](=O)[O-])cc6)c(OC)cc5N(C)[C@H]4[C@@](O)(C(=O)OC)[C@@H]1OC(C)=O)[C@@H]32` (some centres undefined), the GI50 (786-0) is reported as 11.8 µM (inactive), the GI50 (CAKI-1) is reported as 12.9 µM (inactive) and the GI50 (CCRF-CEM) is reported as 1.77 µM (inactive). For the same compound, the GI50 (COLO 205) was 4.63 µM (inactive), the GI50 (DU-145) was 22.8 µM (inactive) and the GI50 (EKVX) was 9.86 µM (inactive). The GI50 (HL-60) was 7.31 µM (inactive), the GI50 (HOP-92) was 2.54 µM (inactive) and the GI50 (Hs-578T) was 18.4 µM (inactive). For the same compound, the GI50 (KM12) was 14.3 µM (inactive), the GI50 (MDA-MB-231) was 9.59 µM (inactive) and the GI50 (Malme-3M) was 16.1 µM (inactive). For the same compound, the GI50 (OVCAR-4) was 9.59 µM (inactive), the GI50 (OVCAR-5) was 13 µM (inactive) and the GI50 (SF-268) was 16.2 µM (inactive). For the same compound, the GI50 (SK-MEL-2) was 13 µM (inactive), the GI50 (SNB-75) was 9.48 µM (inactive) and the GI50 (T47D) was 13.3 µM (inactive). The GI50 (U-251) was 11.2 µM (inactive).
With `CCOC(=O)[C@@H]1ON2O[C@H](OC3CCCC3(c3ccccc3)c3ccccc3)C[C@H]3OC(=O)[C@@H]1C32` (some centres undefined) the GI50 (786-0) was 78 µM (inactive), the GI50 (CAKI-1) was 22.9 µM (inactive) and the GI50 (CCRF-CEM) was 26.3 µM (inactive). The GI50 (COLO 205) was 40.6 µM (inactive), the GI50 (DU-145) was 25.5 µM (inactive) and the GI50 (EKVX) was > 100 µM (inactive). The GI50 (HCC 2998) was 52.1 µM (inactive), the GI50 (HL-60) was 22.2 µM (inactive) and the GI50 (HOP-92) was 95.7 µM (inactive). The GI50 (Hs-578T) was 49.4 µM (inactive), the GI50 (KM12) was 27.9 µM (inactive) and the GI50 (MDA-MB-231) was 36.6 µM (inactive). For the same compound, the GI50 (OVCAR-5) was > 100 µM (inactive), the GI50 (SF-268) was 95.9 µM (inactive) and the GI50 (SNB-75) was 71.4 µM (inactive). For the same compound, the GI50 (T47D) was 26.1 µM (inactive) and the GI50 (U-251) was 52.4 µM (inactive).
